Measurements published in EP4620955A1, “MC4R ANTAGONIST COMPOUND, PHARMACEUTICAL COMPOSITION AND PHARMACEUTICAL USE THEREOF” (Changchun Genescience Pharmaceutical Co., Ltd., priority 2022, dated 2024).

Test system: not listed separately
Assay: Pharmacokinetic study on the tested compound in SD male rats
Assay type: in vivo
Conditions: IV 1 mpk/PO 2 mpk
Protocol: On the day of administration, the tested compound was prepared with 5% DMSO + 5% Solutol + 90% Saline as a solvent into a solution for administration for use.
The solution for administration was administered to an intravenous injection IV group at a dose of 1 mg/kg in a concentration of 0.2 mg/mL. The solution for administration was administered to an oral gavage PO group at a dose of 2 mg/kg in a concentration of 0.2 mg/mL. The animals in the PO group were required to fast overnight in advance, drink water freely, and be fed 4 hours after administration. The IV group was not required to fast.
The animals were weighed before administration. On the day of administration, the solution was IV/PO-administered once in an administration amount calculated based on the weight. In the IV group, blood was collected from veins at 0.083 h, 0.25 h, 0.5 h, 1.0 h, 2.0 h, 4.0 h, 8.0 h, and 24 h after administration. In the PO group, blood was collected from veins at 0.25 h, 0.5 h, 1.0 h, 2.0 h, 4.0 h, 6.0 h, 8.0 h, and 24 h after administration. The amount of blood collected was about 0.20 mL. K2-EDTA was used in blood collection tubes as an anticoagulant. The collected blood sample was centrifuged (centrifugation conditions: 6800 g, 6 min, 2°C to 8°C) within 1 h to obtain plasma. The to-be-tested sample was stored in a refrigerator at -80°C before analysis.
The concentration of the tested compound in the plasma of the SD male rats was detected by the validated LC-MS/MS method.

| F | Compound |
| --- | --- |
| 11.1% | COc1cc([C@@H](C)C(=O)N2CC[C@H](Nc3ccc(-c4cn(C)c(OC(F)F)n4)c(C)n3)C2)c(F)cn1 [Compound 197, (R)-1-((S)-3-((5-(2-(difluoromethoxy)-1-methyl-1H-imidazol-4-yl)-6-methylpyridine-2-yl)amino)pyrrolidine-1-yl)-2-(5-fluoro-2-methoxypyridine-4-yl)propan-1-one] |

Same assay, conditions: Sprague-Dawley (SD), rat, plasma, IV 1 mpk/PO 2 mpk

| AUC | Cmax | clearance | half-life | Compound |
| --- | --- | --- | --- | --- |
| 43 ng·h/mL | 35 ng/mL | 86.9 mL/min/kg | 1.2 h | COc1cc([C@@H](C)C(=O)N2CC[C@H](Nc3ccc(-c4cn(C)c(OC(F)F)n4)c(C)n3)C2)c(F)cn1 [Compound 197, (R)-1-((S)-3-((5-(2-(difluoromethoxy)-1-methyl-1H-imidazol-4-yl)-6-methylpyridine-2-yl)amino)pyrrolidine-1-yl)-2-(5-fluoro-2-methoxypyridine-4-yl)propan-1-one] |

Target: T1, MC4R (Homo sapiens, UniProt P32245)
T1 construct: expressed in transfected cells; host or cells: flipin-293-MC4 (Flp-In 293 host, hygromycin selection)
Assay: Assay of MC4R antagonist activity in cells in vitro (cAMP assay, Melanotan I stimulation)
Assay type: cell-based
Conditions: flipin-293-MC4 cell line, Melanotan I as agonist
Protocol: Test Example 1: Assay of MC4R antagonist activity in cells in vitro
a. Experimental consumables:
b. Experimental steps • ✔ Cell line: flipin-293-MC4 • ✔ Cell culture medium: DMEM, 10% fetal bovine serum, 1 × PS, 200 µg/mL hygromycin • ✔ Experimental buffer: HBSS, 20 mM HEPES, 0.1% BSA, 500 µM IBMX • ✔ Positive compound: ML00253764 c. Antagonist detection • 1. Digested cells were suspended in the experimental buffer, and then inoculated into the 384-well cell culture plate. • 2. The to-be-detected compound was added to the cell plate, and incubated at 37°C for 10 min. • 3. Melanotan I was added to the cell plate, and incubated at 37°C for 30 min. • 4. Two detection reagents EU cAMP tracer and ulight anti camp were thawed and diluted with a lysis solution in the kit. • 5. The diluted detection reagents were added to the cell plate and incubated at room temperature for 1 h. • 6. Reading was carried out by Envision. (Excitation light: 340 nm, emission light: 615 nm and 665 nm) d. Data analysis • 1. %Inhibition calculation: %Inhibition = (Signalcmpd−SignalAve_VC)/(SignalAve_PC−SignalAve_VC) × 100. [formula] • Signalcmpd: compound signal value; • SignalAve_VC: negative control signal value; • SignalAve_PC: positive control signal value; • %inhibition: inhibition percentage. • 2. Calculation of IC50 of the compound using the nonlinear fitting equation in GraphPad: Y = Bottom + (Top−Bottom)/(1+10^(∧)((LogIC50−X)×HillSlope)) [formula] X: logarithmic value of the concentration of the compound; Y: inhibition percentage

T1 sequence (P32245 whole entry): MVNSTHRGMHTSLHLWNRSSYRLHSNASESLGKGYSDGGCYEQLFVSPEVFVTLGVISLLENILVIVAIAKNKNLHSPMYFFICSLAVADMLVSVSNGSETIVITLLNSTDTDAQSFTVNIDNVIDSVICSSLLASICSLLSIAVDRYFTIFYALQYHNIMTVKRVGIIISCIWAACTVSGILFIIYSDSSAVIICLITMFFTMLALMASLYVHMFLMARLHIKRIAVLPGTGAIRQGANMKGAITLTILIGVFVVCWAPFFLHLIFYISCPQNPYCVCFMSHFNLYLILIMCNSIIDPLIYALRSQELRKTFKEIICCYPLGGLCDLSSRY

| IC50 | Compound |
| --- | --- |
| 10.6 nM | COc1cc([C@@H](C)C(=O)N2C[C@@H](C)[C@H](Nc3ccc(-c4ncccn4)c(C)n3)C2)c(F)cn1 [Compound 051-2, (R)-2-(5-fluoro-2-methoxypyridine-4-yl)-1-((3R,4S)-3-methyl-4-((6-methyl-5-(pyrimidine-2-yl)pyridine-2-yl)amino)pyrrolidine-1-yl)propan-1-one] |
| 26.2 nM | COc1cc([C@@H](C)C(=O)N2CC[C@H](Nc3ccc(-c4ncc(C#N)cn4)c(C)n3)C2)c(F)cn1 [Compound 110, 2-(6-(((S)-1-((R)-2-(5-fluoro-2-methoxypyridine-4-yl)propionyl)pyrrolidine-3-yl)amino)-2-methylpyridine-3-yl)pyrimidine-5-nitrile] |
| 0.9 nM | COc1cc([C@@H](C)C(=O)N2CC[C@H](Nc3ccc(-c4nccc(C#N)n4)c(C)n3)C2)c(Cl)cn1 [Compound 113, 2-(6-(((S)-1-((R)-2-(5-chloro-2-methoxypyridine-4-yl)propionyl)pyrrolidine-3-yl)amino)-2-methylpyridine-3-yl)pyrimidine-4-nitrile] |
| 2.78 nM | COc1ccc2nc(N[C@@H]3CN(C(=O)[C@H](C)c4cc(OC)ncc4F)CC34CC4)nc(C)c2c1 [Compound 115, (R)-2-(5-fluoro-2-methoxypyridine-4-yl)-1-((S)-7-((6-methoxy-4-methylquinazoline-2-yl)amino)-5-azaspiro[2.4]heptane-5-yl)propan-1-one] |
| 1.57 nM | COc1cc([C@@H](C)C(=O)N2C[C@@H](Nc3ccc4cc(OC)c(F)cc4n3)C3(CC3)C2)c(F)cn1 [Compound 117, (R)-2-(5-fluoro-2-methoxypyridine-4-yl)-1-((S)-7-((7-fluoro-6-methoxyquinoline-2-yl)amino)-5-azaspiro[2.4]heptane-5-yl)propan-1-one] |
| 1.71 nM | COc1cc([C@@H](C)C(=O)N2C[C@@H](Nc3ccc(-c4nc(C(F)F)n(C)n4)c(C)n3)C3(CC3)C2)c(F)cn1 [Compound 119, (R)-1-((S)-7-((5-(5-(difluoromethyl)-1-methyl-1H-1,2,4-triazole-3-yl)-6-methylpyridine-2-yl)amino)-5-azaspiro[2.4]heptane-5-yl)-2-(5-fluoro-2-methoxypyridine-4-yl)propan-1-one] |
| 1.06 nM | COc1cc([C@@H](C)C(=O)N2C[C@@H](Nc3ccc(-c4nc(C)n(C)n4)c(C)n3)C3(CC3)C2)c(F)cn1 [Compound 132, (2R)-1-[(7S)-7-{[5-(1,5-dimethyl-1H-1,2,4-triazole-3-yl)-6-methylpyridine-2-yl]amino}-5-azaspiro[2.4]heptane-5-yl]-2-(5-fluoro-2-methoxypyridine-4-yl)propan-1-one] |
| 1.28 nM | COc1cc([C@@H](C)C(=O)N2C[C@@H](Nc3ccc(-c4ncn(C)n4)c(C)n3)C3(CC3)C2)c(F)cn1 [Compound 136, (2R)-2-(5-fluoro-2-methoxypyridine-4-yl)-1-[(7S)-7-{[6-methyl-5-(1-methyl-1H-1,2,4-triazole-3-yl)pyridine-2-yl]amino}-5-azaspiro[2.4]heptane-5-yl]propan-1-one] |
| 2.88 nM | COc1cc([C@@H](C)C(=O)N2C[C@@H](Nc3ccc(-c4nc(C)n(C)n4)c(C)n3)C3(CC3)C2)c(Cl)cn1 [Compound 141, (2R)-2-(5-chloro-2-methoxypyridine-4-yl)-1-[(7S)-7-{[5-(1,5-dimethyl-1H-1,2,4-triazole-3-yl)-6-methylpyridine-2-yl]amino}-5-azaspiro[2.4]heptane-5-yl]propan-1-one] |
| 3.29 nM | COc1cc([C@@H](C)C(=O)N2C[C@@H](Nc3ccc(-c4ncn(C)n4)c(C)n3)C3(CC3)C2)c(Cl)cn1 [Compound 142, (2R)-2-(5-chloro-2-methoxypyridine-4-yl)-1-[(7S)-7-{[6-methyl-5-(1-methyl-1H-1,2,4-triazole-3-yl)pyridine-2-yl]amino}-5-azaspiro[2.4]heptane-5-yl]propan-1-one] |
| 5.73 nM | COc1cc([C@@H](C)C(=O)N2C[C@@H](Nc3ccc(-c4cnn(C)c4)c(C)n3)C3(CC3)C2)c(F)cn1 [Compound 143, (2R)-2-(5-fluoro-2-methoxypyridine-4-yl)-1-((7S)-7-((6-methyl-5-(1-methyl-1H-pyrazol-4-yl)pyridine-2-yl)amino)-5-azaspiro[2.4]heptane-5-yl)propan-1-one] |
| 1.74 nM | COc1cc([C@@H](C)C(=O)N2C[C@@H](Nc3ccc(-c4cn(C)c(C)n4)c(C)n3)C3(CC3)C2)c(F)cn1 [Compound 149, (R)-1-((S)-7-((5-(1,2-dimethyl-1H-imidazol-4-yl)-6-methylpyridine-2-yl)amino)-5-azaspiro[2.4]hept-5-yl)-2-(5-fluoro-2-methoxypyridine-4-yl)propan-1-one] |
| 1.84 nM | COc1cc([C@@H](C)C(=O)N2C[C@@H](Nc3ccc(-c4cn(C)cn4)c(C)n3)C3(CC3)C2)c(F)cn1 [Compound 150, (R)-2-(5-fluoro-2-methoxypyridine-4-yl)-1-((S)-7-((6-methyl-5-(1-methyl-1H-imidazol-4-yl)pyridine-2-yl)amino)-5-azaspiro[2.4]hept-5-yl)propan-1-one] |
| 3.04 nM | COc1cc([C@@H](C)C(=O)N2C[C@@H](Nc3ccc(-c4nccc(C(F)F)n4)c(C)n3)C3(CC3)C2)c(F)cn1 [Compound 155, (R)-1-((S)-7-((5-(4-(difluoromethyl)pyrimidine-2-yl)-6-methylpyridine-2-yl)amino)-5-azaspiro[2.4]hept-5-yl)-2-(5-fluoro-2-methoxypyridine-4-yl)propan-1-one] |
| 1.85 nM | COc1cc([C@@H](C)C(=O)N2C[C@@H](Nc3ccc(-c4nccc(C(F)F)n4)c(C)n3)C3(CC3)C2)c(Cl)cn1 [Compound 156, (R)-2-(5-chloro-2-methoxypyridine-4-yl)-1-((S)-7-((5-(4-(difluoromethyl)pyrimidine-2-yl)-6-methylpyridine-2-yl)amino)-5-azaspiro[2.4]hept-5-yl)propan-1-one] |
| 4.03 nM | COc1cc([C@@H](C)C(=O)N2C[C@@H](Nc3ccc(-c4cnn(C)n4)c(C)n3)C3(CC3)C2)c(Cl)cn1 [Compound 166, (R)-2-(5-chloro-2-methoxypyridine-4-yl)-1-((S)-7-((6-methyl-5-(2-methyl-2H-1,2,3-triazol-4-yl)pyridine-2-yl)amino)-5-azaspiro[2.4]hept-5-yl)propan-1-one] |
| 3.68 nM | COc1cc([C@@H](C)C(=O)N2C[C@@H](Nc3ccc(-c4cc(C#N)ccn4)c(C)n3)C3(CC3)C2)c(Cl)cn1 [Compound 168, 6'-(((S)-5-((R)-2-(5-chloro-2-methoxypyridine-4-yl)propionyl)-5-azaspiro[2.4]hept-7-yl)amino)-2'-methyl-[2,3'-bipyridyl]-4-carbonitrile] |

| Compound | IC50 |
| --- | --- |
| COc1cc([C@@H](C)C(=O)N2CCC(Nc3ccc(-c4ncccn4)c(C)n3)C2)c(F)cn1 (stereo partly drawn) [Compound 001, (2R)-2-(5-fluoro-2-methoxypyridine-4-yl)-1-(3-((6-methyl-5-(pyrimidine-2-yl)pyridine-2-yl)amino)pyrrolidine-1-yl)propyl-1-one] | 16.4 nM |
| COc1ccc2nc(N[C@@H]3CN(C(=O)[C@H](C)c4cc(OC)ncc4Cl)CC34CC4)nc(C)c2c1 [Compound 118] | 3.75 nM |
| COc1cc([C@@H](C)C(=O)N2C[C@@H](Nc3ccc(-c4cnn(C)c4)c(C)n3)C3(CC3)C2)c(Cl)cn1 [Compound 144] | 1.83 nM |
